Data published in the supplement of paper PMC5844555.

Legend:
Assay in all cases: 3' UTR reporter interaction score (median-centred robust z-score of log2 firefly/Renilla activity); higher = less repression of the 3' UTR reporter
Details in all cases: HEK293T; 48 h
PHF6 = tested on: PHF6
Method in brief: (§1)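 Firefly and Renilla luciferase activities were read 48 h post-transfection in HEK293T cells (10,000/well, 96-well plates). The cells had received 100 ng firefly luc2P reporter bearing the gene's 3' UTR, 20 ng Renilla pRL-TK control and 2.5 pmol miRNA mimic via DharmaFECT Duo. The interaction score, where more negative means interaction, is a per-plate robust z-score (median, median absolute deviation) of the log firefly/Renilla ratio, median-centred per miRNA and averaged over at least two independent screens.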

PHOX2B = tested on: PHOX2B
Method in brief: as §1

MYB = tested on: MYB
Method in brief: as §1

BRCA2 = tested on: BRCA2
Method in brief: as §1

TP53 = tested on: TP53
Method in brief: as §1

MYC = tested on: MYC
Method in brief: as §1

EZH2 = tested on: EZH2
Method in brief: as §1

MYCN = tested on: MYCN
Method in brief: as §1

FBXW7 = tested on: FBXW7
Method in brief: as §1

MYT1L = tested on: MYT1L
Method in brief: as §1

HRAS = tested on: HRAS
Method in brief: as §1

ZEB2 = tested on: ZEB2
Method in brief: as §1

RB1 = tested on: RB1
Method in brief: as §1

NOTCH1 = tested on: NOTCH1
Method in brief: as §1

UGAGGUAGUAGGUUGUAUGGUU
3' UTR reporter interaction score (PHF6): 0.487
3' UTR reporter interaction score (PHOX2B): -0.072
3' UTR reporter interaction score (MYB): 0.761
3' UTR reporter interaction score (BRCA2): 0.199
3' UTR reporter interaction score (TP53): -0.643
3' UTR reporter interaction score (MYC): -2.26
3' UTR reporter interaction score (EZH2): -3.88
3' UTR reporter interaction score (MYCN): -4.05
3' UTR reporter interaction score (FBXW7): 0.348
3' UTR reporter interaction score (MYT1L): 0.588
3' UTR reporter interaction score (HRAS): 0.339
3' UTR reporter interaction score (ZEB2): 0.734

UGAUUGUAGCCUUUUGGAGUAGA
3' UTR reporter interaction score (PHF6): 0.465
3' UTR reporter interaction score (PHOX2B): -0.496
3' UTR reporter interaction score (MYB): 1.56
3' UTR reporter interaction score (BRCA2): 1.26
3' UTR reporter interaction score (TP53): -0.415
3' UTR reporter interaction score (MYC): -1.19
3' UTR reporter interaction score (RB1): -0.751
3' UTR reporter interaction score (EZH2): 0.191
3' UTR reporter interaction score (MYCN): 0.938
3' UTR reporter interaction score (FBXW7): -0.741
3' UTR reporter interaction score (MYT1L): -0.331
3' UTR reporter interaction score (HRAS): 1.52
3' UTR reporter interaction score (ZEB2): -1.2

UGUAAACAUCCUCGACUGGAAG
3' UTR reporter interaction score (PHF6): -2.11
3' UTR reporter interaction score (MYB): 0.498
3' UTR reporter interaction score (BRCA2): -0.114
3' UTR reporter interaction score (TP53): -0.35
3' UTR reporter interaction score (MYC): -0.476
3' UTR reporter interaction score (RB1): 0.575
3' UTR reporter interaction score (EZH2): 0.0496
3' UTR reporter interaction score (MYCN): -0.46
3' UTR reporter interaction score (FBXW7): 0.336
3' UTR reporter interaction score (MYT1L): 0.672
3' UTR reporter interaction score (HRAS): 0.246
3' UTR reporter interaction score (ZEB2): -1.69

UGUAACAGCAACUCCAUGUGGA
3' UTR reporter interaction score (PHF6): 1.94
3' UTR reporter interaction score (NOTCH1): -0.0483
3' UTR reporter interaction score (PHOX2B): -2.2
3' UTR reporter interaction score (MYB): 0.809
3' UTR reporter interaction score (BRCA2): 0.232
3' UTR reporter interaction score (TP53): -0.515
3' UTR reporter interaction score (MYC): -1.28
3' UTR reporter interaction score (RB1): -0.726
3' UTR reporter interaction score (EZH2): -1.3
3' UTR reporter interaction score (MYCN): 0.331
3' UTR reporter interaction score (FBXW7): -1.43
3' UTR reporter interaction score (MYT1L): -0.161
3' UTR reporter interaction score (ZEB2): 0.401

UGUCUUACUCCCUCAGGCACAU
3' UTR reporter interaction score (PHF6): 2.68
3' UTR reporter interaction score (PHOX2B): 0.667
3' UTR reporter interaction score (MYB): -0.229
3' UTR reporter interaction score (BRCA2): 0.202
3' UTR reporter interaction score (TP53): 0.565
3' UTR reporter interaction score (MYC): -0.519
3' UTR reporter interaction score (RB1): 0.999
3' UTR reporter interaction score (EZH2): -0.24
3' UTR reporter interaction score (MYCN): -1.1
3' UTR reporter interaction score (FBXW7): 1.02
3' UTR reporter interaction score (MYT1L): -2.22
3' UTR reporter interaction score (HRAS): -1.06
3' UTR reporter interaction score (ZEB2): -0.976

UUCUCCAAAAGGGAGCACUUUC
3' UTR reporter interaction score (PHF6): -0.0417
3' UTR reporter interaction score (NOTCH1): -0.166
3' UTR reporter interaction score (MYB): -0.361
3' UTR reporter interaction score (BRCA2): -0.958
3' UTR reporter interaction score (TP53): -0.24
3' UTR reporter interaction score (MYC): -0.329
3' UTR reporter interaction score (RB1): 1.31
3' UTR reporter interaction score (EZH2): -0.381
3' UTR reporter interaction score (MYCN): 0.94
3' UTR reporter interaction score (FBXW7): -0.759
3' UTR reporter interaction score (MYT1L): 2.01
3' UTR reporter interaction score (HRAS): 0.596
3' UTR reporter interaction score (ZEB2): 1.08

UUGAAACAAUCUCUACUGAAC
3' UTR reporter interaction score (PHF6): -1.21
3' UTR reporter interaction score (NOTCH1): 0.836
3' UTR reporter interaction score (PHOX2B): 0.857
3' UTR reporter interaction score (MYB): -0.218
3' UTR reporter interaction score (BRCA2): -0.93
3' UTR reporter interaction score (TP53): -0.126
3' UTR reporter interaction score (MYC): 0.402
3' UTR reporter interaction score (RB1): -1.43
3' UTR reporter interaction score (EZH2): 0.163
3' UTR reporter interaction score (FBXW7): 1.05
3' UTR reporter interaction score (MYT1L): 0.3
3' UTR reporter interaction score (HRAS): -0.263
3' UTR reporter interaction score (ZEB2): 0.917

UUGUGUCAAUAUGCGAUGAUGU
3' UTR reporter interaction score (PHF6): 0.901
3' UTR reporter interaction score (PHOX2B): -1.6
3' UTR reporter interaction score (MYB): -0.649
3' UTR reporter interaction score (BRCA2): -0.078
3' UTR reporter interaction score (TP53): -0.384
3' UTR reporter interaction score (MYC): 0.588
3' UTR reporter interaction score (RB1): 0.229
3' UTR reporter interaction score (EZH2): 0.77
3' UTR reporter interaction score (MYCN): -0.328
3' UTR reporter interaction score (FBXW7): -1.37
3' UTR reporter interaction score (MYT1L): -0.212
3' UTR reporter interaction score (HRAS): 1.07
3' UTR reporter interaction score (ZEB2): 0.639

UUUGGCACUAGCACAUUUUUGC
3' UTR reporter interaction score (PHF6): -0.863
3' UTR reporter interaction score (NOTCH1): 0.319
3' UTR reporter interaction score (PHOX2B): 0.531
3' UTR reporter interaction score (BRCA2): 0.322
3' UTR reporter interaction score (TP53): -0.115
3' UTR reporter interaction score (MYC): 0.306
3' UTR reporter interaction score (RB1): 0.451
3' UTR reporter interaction score (EZH2): 0.814
3' UTR reporter interaction score (MYCN): 0.288
3' UTR reporter interaction score (FBXW7): -1.69
3' UTR reporter interaction score (MYT1L): -0.203
3' UTR reporter interaction score (HRAS): 0.722
3' UTR reporter interaction score (ZEB2): 0.198

UUUGUGACCUGGUCCACUAACC
3' UTR reporter interaction score (PHF6): 0.815
3' UTR reporter interaction score (NOTCH1): 0.65
3' UTR reporter interaction score (PHOX2B): 0
3' UTR reporter interaction score (MYB): 0.254
3' UTR reporter interaction score (BRCA2): -0.491
3' UTR reporter interaction score (TP53): -1.6
3' UTR reporter interaction score (MYC): -1.92
3' UTR reporter interaction score (RB1): 0.728
3' UTR reporter interaction score (EZH2): 0.358
3' UTR reporter interaction score (MYCN): 0.167
3' UTR reporter interaction score (FBXW7): -0.879
3' UTR reporter interaction score (MYT1L): -0.568
3' UTR reporter interaction score (ZEB2): 0.152
